Assay results reported in patent US20150352108A1, “AMINO-PYRIMIDINE COMPOUNDS AS INHIBITORS OF TBK1 AND/OR IKK EPSILON” (Alzheimer's Institute of America, priority 2009, published 2015).
Read-outs that look alike come from different tables or passages of the source.

Experiments:
[1] = molecular target: T1, IKKε (Homo sapiens, UniProt Q14164); experiment: In-vitro IKKε kinase assay ([γ33]ATP filter-plate); type: biochemical
T1 construct: His-tag; made in house; host or cells: Sf9 insect cells
T1 sequence (Q14164 1-716): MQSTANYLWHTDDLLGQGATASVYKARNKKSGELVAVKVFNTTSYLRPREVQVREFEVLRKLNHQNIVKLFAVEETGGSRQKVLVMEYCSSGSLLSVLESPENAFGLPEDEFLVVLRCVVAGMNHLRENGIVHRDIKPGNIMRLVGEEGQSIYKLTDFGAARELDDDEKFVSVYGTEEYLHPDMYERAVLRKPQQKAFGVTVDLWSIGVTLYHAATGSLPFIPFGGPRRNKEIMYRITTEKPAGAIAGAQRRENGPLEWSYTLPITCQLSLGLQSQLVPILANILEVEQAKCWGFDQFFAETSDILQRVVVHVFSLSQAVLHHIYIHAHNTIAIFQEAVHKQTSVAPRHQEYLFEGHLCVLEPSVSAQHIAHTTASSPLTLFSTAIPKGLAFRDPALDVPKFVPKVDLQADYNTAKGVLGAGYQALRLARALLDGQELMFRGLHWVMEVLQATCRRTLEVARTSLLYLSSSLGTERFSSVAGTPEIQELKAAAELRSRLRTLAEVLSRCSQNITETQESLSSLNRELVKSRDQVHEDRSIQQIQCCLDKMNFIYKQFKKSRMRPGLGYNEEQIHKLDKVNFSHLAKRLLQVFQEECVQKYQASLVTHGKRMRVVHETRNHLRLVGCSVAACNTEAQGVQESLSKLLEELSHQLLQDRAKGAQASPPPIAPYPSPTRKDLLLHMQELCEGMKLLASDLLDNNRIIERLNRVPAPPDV
In short: (§1)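 Phosphorylation of casein or myelin basic protein was counted by P-81 filter capture after 30-45 min reactions stopped with phosphoric acid, with counts normalized to DMSO after background subtraction. ATP was twice Km: 60 μM for TBK1 and 32 μM for IKKε, plus [γ33]ATP. Sf9-expressed His-tag enzymes were used at normal/sensitized levels of 0.1/0.02 μg/ml (TBK1) and 0.1/0.015 μg/ml (IKKε).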

[2] = tested on: IKKε-mediated phosphorylation of IRF3; experiment: In-situ phosphorylation of IRF3 (pIRF3 Ser396 ELISA) in HEK293T cells cotransfected with IRF3 and IKKε; type: cell-based; conditions: Homo sapiens, HEK-293T
In short: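 For the IRF3 ELISA, HEK293T cells cotransfected with IRF3 and IKKε were replated at 20,000/well and treated 20 h. Phospho-Ser396 IRF3 was measured by ELISA and normalised to DMSO, with viability checked by CellTiter-Glo. For IRF7, cells transfected with IRF7 and TBK1 were treated overnight, and pSer477/Ser479 IRF7 was detected by Western blot.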

[3] = molecular target: T2, TBK1 (Homo sapiens, UniProt Q9UHD2); experiment: In-vitro TBK1 kinase assay ([γ33]ATP filter-plate); type: biochemical
T2 construct: His-tag; made in house; host or cells: Sf9 insect cells
T2 sequence (Q9UHD2 1-729): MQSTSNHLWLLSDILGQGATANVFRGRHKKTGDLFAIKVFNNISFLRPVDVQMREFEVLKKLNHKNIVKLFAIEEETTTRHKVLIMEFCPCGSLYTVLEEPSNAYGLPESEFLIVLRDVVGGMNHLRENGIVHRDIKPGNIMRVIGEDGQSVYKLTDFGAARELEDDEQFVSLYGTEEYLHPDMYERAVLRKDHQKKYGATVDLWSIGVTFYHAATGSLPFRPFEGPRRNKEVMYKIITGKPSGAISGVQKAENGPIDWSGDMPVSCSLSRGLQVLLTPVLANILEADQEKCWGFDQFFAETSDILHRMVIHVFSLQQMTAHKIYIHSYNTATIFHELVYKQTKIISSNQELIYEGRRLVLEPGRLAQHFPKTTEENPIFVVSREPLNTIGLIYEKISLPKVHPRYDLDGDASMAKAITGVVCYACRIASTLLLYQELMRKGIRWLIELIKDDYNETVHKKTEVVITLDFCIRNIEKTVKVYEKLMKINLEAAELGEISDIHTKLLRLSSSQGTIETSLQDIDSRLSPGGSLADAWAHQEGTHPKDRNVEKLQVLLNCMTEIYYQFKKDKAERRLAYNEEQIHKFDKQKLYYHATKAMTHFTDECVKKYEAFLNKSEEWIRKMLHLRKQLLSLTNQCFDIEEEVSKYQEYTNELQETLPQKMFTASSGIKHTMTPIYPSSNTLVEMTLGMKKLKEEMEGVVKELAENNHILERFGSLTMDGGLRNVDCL
In short: as §1

[4] = text bins, read-out: IC50 for inhibition of the kinase activity of IKKε
[5] = HEK293T cells, 20 hours, text bins, read-out: IC50 for inhibition of the in-situ IKKε-mediated phosphorylation of IRF3
[6] = text bins, read-out: IC50 for inhibition of the kinase activity of TBK1
[7] = HEK293T cells in culture, Table 3, read-out: pIRF3 ELISA IC50

| SMILES | IC50 [1, 4] [nM] | IC50 [2, 5] [nM] | IC50 [3, 6] [nM] | IC50 ([1]; Table 3, read-out: IKKε IC50) [nM] | IC50 [2, 7] [nM] | IC50 ([3]; Table 3, read-out: TBK1 IC50) [nM] |
| --- | --- | --- | --- | --- | --- | --- |
| COc1cc(Nc2nccc(-c3ccc(OC4CCOCC4)c(C#N)c3)n2)ccc1CN1CCN(CCO)CC1 [compound 477, 5-{2-[(4-{[4-(2-Hydroxyethyl)piperazin-1-yl]methyl}-3-methoxyphenyl)amino]pyrimidin-4-yl}-2-(tetrahydro-2H-pyran-4-yloxy)benzonitrile] | < 5 | < 100 | 10 to 100 | – | – | – |
| CCN1CCC(CCCOc2cc(Nc3nccc(-c4ccc(OC5CCOCC5)c(C#N)c4)n3)ccc2OC)CC1 [compound 521, 5-[2-({3-[3-(1-ethylpiperidin-4-yl)propoxy]-4-methoxyphenyl}amino)pyrimidin-4-yl]-2-(tetrahydro-2H-pyran-4-yloxy)benzonitrile] | < 5 | < 100 | < 10 | – | – | – |
| COc1cc(Nc2nccc(-c3ccc(OC4CCOCC4)c(C#N)c3)n2)ccc1OCCCN1CCN(C)CC1 [Example 256, 5-[2-({3-methoxy-4-[3-(4-methylpiperazin-1-yl)propoxy]phenyl}amino)pyrimidin-4-yl]-2-(tetrahydro-2H-pyran-4-yloxy)benzonitrile] | < 5 | 100 to 250 | < 10 | – | – | – |
| COc1cc(Nc2nccc(-c3ccc(OC4CCOCC4)c(C#N)c3)n2)ccc1C(=O)NCCCN(C)C [Example 103, 4-({4-[3-cyano-4-(tetrahydro-2H-pyran-4-yloxy)phenyl]pyrimidin-2-yl}amino)-N-[3-(dimethylamino)propyl]-2-methoxybenzamide] | < 5 | 250 to 500 | < 10 | – | – | – |
| CC(C)N1CCN(CCOc2cc(Nc3nccc(-c4ccc(OCC5CC5)c(C#N)c4)n3)ccc2F)CC1 [compound 574, 2-(Cyclopropylmethoxy)-5-{2-[(4-fluoro-3-{2-[4-(propan-2-yl)piperazin-1-yl]ethoxy}phenyl)amino]pyrimidin-4-yl}benzonitrile] | < 5 | 100 to 250 | < 10 | – | – | – |
| N#Cc1cc(-c2ccnc(Nc3ccc(N4CCOCC4)cc3)n2)ccc1OC1CCN(C=O)CC1 [Example 242, 2-[(1-formylpiperidin-4-yl)oxy]-5-(2-{[4-(morpholin-4-yl)phenyl]amino}pyrimidin-4-yl)benzonitrile] | < 5 | 250 to 500 | < 10 | – | – | – |
| CC(C)N1CCN(CCOc2cc(Nc3nccc(-c4ccc(OC5CCOCC5)c(C#N)c4)n3)ccc2F)CC1 [compound 650, 5-{2-[(4-Fluoro-3-{2-[4-(propan-2-yl)piperazin-1-yl]ethoxy}phenyl)amino]pyrimidin-4-yl}-2-(tetrahydro-2H-pyran-4-yloxy)benzonitrile] | < 5 | < 100 | < 10 | – | – | – |
| N#Cc1cc(-c2ccnc(Nc3ccc(CS(=O)(=O)NCCO)cc3)n2)ccc1OC1CCOCC1 [compound 402, 1-[4-({4-[3-Cyano-4-(tetrahydro-2H-pyran-4-yloxy)phenyl]pyrimidin-2-yl}amino)phenyl]-N-(2-hydroxyethyl) methanesulfonamide] | < 5 | < 100 | < 10 | – | – | – |
| COc1cc(Nc2nccc(-c3ccc(OC4CCOCC4)c(C#N)c3)n2)ccc1C(=O)N1CC(O)C1 [compound 485, 5-[2-({4-[(3-Hydroxyazetidinb-1-yl)carbonyl]-3-methoxyphenyl}amino)pyrimidin-4-yl]-2-(tetrahydro-2H-pyran-4-yloxy)benzonitrile] | < 5 | < 100 | < 10 | – | – | – |
| N#Cc1cc(-c2ccnc(Nc3ccc(N4CCOCC4)cc3)n2)ccc1OCC1CCNCC1 [Example 72, 5-(2-{[4-(morpholin-4-yl)phenyl]amino}pyrimidin-4-yl)-2-(piperidin-4-ylmethoxy) benzonitrile] | < 5 | 250 to 500 | 10 to 100 | – | – | – |
| CCC(=O)Nc1ccc(-c2ccnc(Nc3ccc(N4CCOCC4)cc3)n2)cc1C#N [compound 445, N-[2-Cyano-4-(2-{[4-(morpholin-4-yl)phenyl]amino}pyrimidin-4-yl)phenyl] propanamide] | 5 to 50 | 250 to 500 | < 10 | – | – | – |
| N#Cc1cc(-c2ccnc(Nc3ccc(Cn4ccnc4)cc3)n2)ccc1OC1CCOCC1 [compound 500, 5-(2-{[4-(1H-imidazol-1-ylmethyl)phenyl]amino}pyrimidin-4-yl)-2-(tetrahydro-2H-pyran-4-yloxy)benzonitrile] | < 5 | < 100 | < 10 | 2 | 91.8 | 0.3 |
| CCN(CC)CCOc1cc(Nc2nccc(-c3ccc(OC4CCOCC4)c(C#N)c3)n2)ccc1F [compound 586, 5-[2-({3-[2-(Diethylamino)ethoxy]-4-fluorophenyl}amino)pyrimidin-4-yl]-2-(tetrahydro-2H-pyran-4-yloxy)benzonitrile] | < 5 | 100 to 250 | < 10 | – | – | – |
| CC(C)COc1ccc(-c2ccnc(Nc3ccc(N4CCOCC4)cc3)n2)cc1C#N [Example 264, 2-(2-Methylpropoxy)-5-(2-{[4-(morpholin-4-yl)phenyl]amino}pyrimidin-4-yl)benzonitrile] | < 5 | – | < 10 | 0.6 | 654 | 0.2 |
| Cc1ccc(Nc2nccc(-c3ccc(OC4CCOCC4)c(C#N)c3)n2)cc1OCCCN1CCOCC1 [compound 517, 5-[2-({4-Methyl-3-[3-(morpholin-4-yl)propoxy]phenyl}amino)pyrimidin-4-yl]-2-(tetrahydro-2H-pyran-4-yloxy)benzonitrile] | < 5 | < 100 | < 10 | – | – | – |
| Cc1ccc(Nc2nccc(-c3ccc(O[C@@H]4CCN(C(=O)CO)C4)c(C#N)c3)n2)cc1C [compound 643, 5-{2-[(3,4-Dimethylphenyl)amino]pyrimidin-4-yl}-2-{[(3R)-1-(hydroxyacetyl)pyrrolidin-3-yl]oxy}benzonitrile] | < 5 | 250 to 500 | – | – | – | – |
| N#Cc1cc(-c2ccnc(Nc3ccc(F)c(OCC4COCCN4)c3)n2)ccc1OC1CCOCC1 (stereo not drawn) [compound 545] | < 5 | 250 to 500 | – | – | – | – |
| CN(C)CCNc1cccc(Nc2nccc(-c3ccc(OC4CCOCC4)c(C#N)c3)n2)c1 [compound 540, 5-{2-[(3-{[2-(Dimethylamino)ethyl]amino}phenyl)amino]pyrimidin-4-yl}-2-(tetrahydro-2H-pyran-4-yloxy)benzonitrile] | < 5 | < 100 | – | – | – | – |
| CCc1cccc(Nc2nccc(-c3ccc(O[C@@H]4CCN(C(=O)CO)C4)c(C#N)c3)n2)c1 [compound 544, 5-{2-[(3-Ethylphenyl)amino]pyrimidin-4-yl}-2-{[(3R)-1-(hydroxyacetyl)pyrrolidin-3-yl]oxy}benzonitrile] | < 5 | 250 to 500 | – | – | – | – |
| N#Cc1cc(-c2ccnc(Nc3ccc(Cn4cnnn4)cc3)n2)ccc1OC1CCOCC1 [compound 629, 2-(Tetrahydro-2H-pyran-4-yloxy)-5-(2-{[4-(1H-tetrazol-1-ylmethyl)phenyl]amino}pyrimidin-4-yl)benzonitrile] | < 5 | < 100 | – | – | – | – |
